This note sets out measurements from patent US9630952B2, “Crystalline forms of afatinib di-maleate” (IVAX INTERNATIONAL GMBH, priority 2014, dated 2017).

Each structure is given as a SMILES string.

Common to all, as to format: physicochemical
Data set [1] is described as follows: competitive slurry experiment comparing thermodynamic stabilities of forms A and Alpha. An excerpt:
As discussed above, crystalline form Alpha of Afatinib di-maleate has some advantages. […] Pharmaceutical molecules may display solid to solid phase transformations, transformations between polymorphs or between unsolvated and solvated form, which may be detected by competitive slurry experiments.

Data set [2] in a line: polymorphic stability under mechanical stress. To be noted: exposed to mechanical stress (e.g. grinding, tabletting pressure); compared to Form A. An excerpt: As discussed above, crystalline form M of Afatinib di-maleate has advantages. […] As formulation processes often involve mechanical stress exerting technologies e.g. during grinding or under strong pressure in a tabletting machine, the polymorphic stability of API material is a desirable property.

The next data set can be described thus: wettability. To be noted: compared to form A. An excerpt: As discussed above, crystalline form N of Afatinib di-maleate has some advantages. […] Wetting is the ability of a liquid (e.g. water) to maintain contact with a solid surface (e.g., API). It is a precursor to dissolution and so the wettability of a drug particle has a significant influence on the dissolution rates and the release characteristics in an oral pharmaceutical delivery. Wettability may also influence the interactions with other particles during formulation and manufacture. A polymorph with enhanced wettability ensures proper solubility measurement of the API per se and in formulation during dissolution experiments, i.e., better distribution of water and properly wetted sample.

Consider `CN(C)C/C=C/C(=O)Nc1cc2c(Nc3ccc(F)c(Cl)c3)ncnc2cc1O[C@H]1CCOC1` [Form Alpha, Afatinib di-maleate], for which the thermodynamic stability result in data set [1] (concluded from competitive slurry in ethanol at room temperature, compared to form A) was “enhanced thermodynamic stability of form Alpha over form A”. Also, the “solid form resulting from competitive slurry of forms A and Alpha” value in data set [1] (in ethanol at room temperature, after about 67 hours) is “pure form Alpha”.

In the case of `CN(C)C/C=C/C(=O)Nc1cc2c(Nc3ccc(F)c(Cl)c3)ncnc2cc1O[C@H]1CCOC1` [Form M, Afatinib di-maleate], in data set [2], the polymorphic stability entry was “enhanced polymorphic stability compared to Form A”.

Regarding `CN(C)C/C=C/C(=O)Nc1cc2c(Nc3ccc(F)c(Cl)c3)ncnc2cc1O[C@H]1CCOC1` [Form N, Afatinib di-maleate], in “wettability”, the wettability entry is on record as “better wettability over form A”.
